From patent US20120029066A1, “USE OF FLAVONES FOR TREATING PSYCHIATRIC DISORDERS WITH SENSORIMOTOR GATING DEFICITS” (Taipei Medical University, priority 2010, published 2012)

How the values were obtained:
mice [1] = assay: Prepulse inhibition (PPI) of acoustic startle response, test compounds i.p.; settings: for effect of psychotomimetic alone on pre-pulse inhibition of the startle response: control experiment, KET 30 mg/Kg i.p. or MeAmph 2 mg/Kg i.p.; for rescue of PPI disruption induced by methamphetamine: MeAmPh 2 mg/kg i.p., 71 dB-prepulse protocol, FIG. 7
mice [2] = assay: PPI of startle response after bilateral intra-cerebella microinjection of test compounds; assay type: in vivo; settings: for reinstating ketamine induced PPI disruption: FIG. 4, FIG. 5
Description: In view of the finding in FIGS. 2 and 3, test compounds (e.g., hispidulin or Ro-154513) were microinjected into cerebella (e.g., i.cb microinjection) of the test animals to confirm the action site of hispidulin, by observing whether the MeAmph, KET, or MK-801-induced PPI disruption may be rescued.
Briefly, the mice were anaesthetized with pentobarbital (100 mg/kg i.p.) and placed in a stereotaxic frame. After shaving the hair, the skull surface was exposed by an incision. The head position of the mice was adjusted so that the bregma-lambda axis was horizontal. Then, two 24 gauge stainless-steel cannulae were implanted bilaterally into the lateral cerebellum (−6.4 mm caudal, ±1.5 mm lateral, −1.0 mm ventral from Bregma), according to stereotaxic coordinates (Paxions, 2001). Three stainless steel screws and dental cement were used to fix the cannulae on the top of the skull. The animal was allowed to fully recover after surgery for at least one week before the behavioral experiments were conducted.
On the day of experiment, test compounds were injected through the embedded cannula at 0.5 μl on each side of the cerebellum for 30 s and waited for 1 min to allow the injected compounds to diffuse into the cerebellum. PPI test were conducted as described in Example 2. After experiments, methylene blue was microinjected (0.5 μl/side) and animals were sacrificed and cerebellar slices were dissected to confirm the microinjection site. The data was discarded in the mice with incorrect microinjection sites.

Male ICR mice = assay: Methamphetamine-induced hyperlocomotion, locomotor activity test; assay type: in vivo; settings: 10 mg/Kg i.p. after methamphetamine 2 mg/kg; test after 15 minutes; FIG. 1
Description: Male ICR mice (25-35 g) were used in this study. They were bred, housed and maintained in the animal facility center with temperature- and humidity-controlled and 12:12 light dark cycle in National Taiwan University Medical College (NTUM) (Taiwan, R.O.C.). All animal experiments were carried out in accordance with the guidelines established by the Institutional Animal Care and Utilization Committee of the respective university.
Methamphetamine (MeAmPh, 2 mg/kg) was injected into mice to induce hyperlocomotion in the mice as a typical model for behavioral experiments.
After 15 minutes, the treated mice were then subjected to locomotor activity test.
Data herein are expressed as the mean±S.E.M and the n number indicates the number of the mice used. Statistical comparisons between the data in control and treatment conditions were analyzed by Student's t test. An effect was considered statistically significant if the p value was less than 0.05.

[3] = 71 or 77 dB prepulse, 115 dB pulse
[4] = 10 nmol i.cb., KET 30 mg/Kg i.p.

CNC1(c2ccccc2Cl)CCCCC1=O (centres unmarked) [KET, ketamine, reference compound]
effect of psychotomimetic alone on pre-pulse inhibition of the startle response (mice [1]; [3]): inhibited the pre-pulse inhibition

CN[C@@H](C)Cc1ccccc1 [MeAmph, methamphetamine, reference compound]
effect of psychotomimetic alone on pre-pulse inhibition of the startle response (mice [1]; [3]): inhibited the pre-pulse inhibition

CCOC(=O)c1ncn2c1CN(C)C(=O)c1cc(N=[N+]=[N-])ccc1-2 [Ro 154513, reference compound]
reinstating ketamine induced PPI disruption (mice [2]; [4]): reinstated

COc1ccc(-c2cc(=O)c3c(O)cc(O)cc3o2)cc1 [acacetin]
decreasing MeAmph-induced hyperlocomotor activity (Male ICR mice): active | rescue of PPI disruption induced by methamphetamine (mice [1]; 10 mg/Kg i.p.): significantly rescued

NS(=O)(=O)c1cc(C(=O)O)c(NCc2ccco2)cc1Cl [furosemide, reference compound]
effect on the reinstated ketamine induced PPI disruption (mice [2]; furosemide 50 nmol i.cb., reinstatement by Ro-154513 or hispidulin 10 nmol i.cb., KET 30 mg/Kg i.p., FIG. 6): antagonized | effect on the reinstated methamphetamine induced PPI disruption (mice [2]; furosemide 50 nmol i.cb., reinstatement by Ro-154513 or hispidulin 10 nmol i.cb., MeAmPh 2 mg/Kg i.p., FIG. 6): antagonized

COc1c(O)cc2oc(-c3ccc(O)cc3)cc(=O)c2c1O [hispidulin]
decreasing MeAmph-induced hyperlocomotor activity (Male ICR mice): active | reinstating ketamine induced PPI disruption (mice [2]; [4]): effective in reinstating | reinstating MK-801 induced PPI disruption (mice [2]; 10 nmol i.cb., MK-801 0.3 mg/Kg i.p., FIG. 4): effective in reinstating | reinstating methamphetamine induced PPI disruption (mice [2]; 10 nmol i.cb., methamphetamine 2 mg/Kg i.p., FIG. 4): effective in reinstating | rescue of KET impaired PPI inhibition (mice [1]; 10 mg/Kg i.p., 15-minute before KET 30 mg/Kg i.p., 71 or 77 dB prepulse, 115 dB pulse, FIG. 2): rescued | rescue of MeAmph impaired PPI inhibition (mice [1]; 50 mg/Kg i.p., 15-minute before MeAmph 2 mg/Kg i.p., 71 or 77 dB prepulse, FIG. 3): rescued

O=c1cc(-c2ccc(O)c(O)c2)oc2cc(O)cc(O)c12 [luteolin]
rescue of PPI disruption induced by methamphetamine (mice [1]; 10 mg/Kg i.p.): significantly rescued
